Test [1] has as its system a variety of crops and weed species. Briefly: Pre- and post-emergence herbicide tests, overall assessment of TABLES III-VI. It counts as in vivo. The settings on record: from data of TABLES III-VI. On the procedure: (§1) All crop and weed species were planted individually in 3" plastic pots containing potting soil. Four seeds each of corn, cotton, and snapbeans were seeded to a depth equal to the diameter of the seed. All other species were surface seeded and sprinkled with screened soil in an amount sufficient to cover the seed. Immediately after planting, all pots were watered by sub-irrigation in greenhouse trays. Pots for the pre-emergence phase were seeded one day before treatment.
(§2) Planting dates for the post-emergence phase were varied so that all seedlings would reach the desired stage of development simultaneously. The proper stage of seedling development for treatment in the post-emergence phase is as follows:
(§3) Compounds were tested at rates of application equivalent to 8 lbs. of actual compound per acre in a spray volume of 38 gallons per acre. Spray hood constants required to deliver the above volume are as follows:
(§4) Two weeks after treatment, pre- and post-emergence injury or control was visually rated, and the results were as shown in the following tables. Pre-emergence data are provided in TABLE III and post-emergence data are provided in TABLE IV, for compounds having the formula illustrated in TABLE I. Correspondingly, pre-emergence and post-emergence data, respectively, are set forth in TABLES V AND VI, for compounds having the formula illustrated in TABLE II.
Typical of such compounds are: 1, 2, 5, 26, 36, and 37.

The test system of test [2] is Cotton (CT). The test can be described thus: Post-emergence herbicide test, cotton. It counts as in vivo, Gossypium hirsutum var. DPL smooth leaf. The settings on record: two weeks. How it is done:
(§5) Cotton (CT)--Gossypium hirsutum var. DPL smooth leaf
as §1, §2
cotton: first true leaf 1" in length; expanded cotyledons.
(§6) Spray hood constants required to deliver the above volume are as follows:
(§7) Formulations for spray applications were prepared in 50 ml volumes with the following three components:
(§8) Formulations for the 4 lbs/acre rate were prepared by adjusting the amount of active ingredient accordingly.
(§9) Spray applications were made in a hood containing a removable belt and fixed spray nozzle. For passage through the spray hood, one pot of each specie (pre-emergence phase) was placed on the rear half of the flat. Treatments were removed to the greenhouse after spraying. Watering during the observation period was done only by sub-irrigation.
as §4

Test [3] concerns Crabgrass (CG). Briefly: Pre-emergence herbicide test, crabgrass. It counts as in vivo, Digitaria sanguinalis. The settings on record: two weeks. On the procedure:
(§10) Crabgrass (CG)--Digitaria sanguinalis
as §1, §6, §7, §8, §9, §4

In test [4] the test system is Crabgrass (CG). Briefly: Post-emergence herbicide test, crabgrass. Format: in vivo, Digitaria sanguinalis. The settings on record: two weeks. On the procedure: as §10, §1, §2, §6
(§11) Formulations for spray applications were prepared in 50 ml volumes with the following three components: […]
as §9, §4

The subject of test [5] is Bean (BN). The test can be described thus: Post-emergence herbicide test, bean. The settings on record: two weeks. Format: in vivo, Phaseolus vulgaris var. Black Valentine. How it is done: Bean (BN)--Phaseolus vulgaris var. Black Valentine
as §1, §2
Beans: primary leaves expanded, growing point at primary leaf nodes.
as §6, §7, §8, §9, §4

For test [6], the system named is Turnip (TP). Briefly: Post-emergence herbicide test, turnip. Format: in vivo, Brassica sp. The settings on record: two weeks. On the procedure: (§12) Turnip (TP)--Brassica sp.
as §1, §2
Pigweed and turnips: 1 or 2 true leaves above visible cotyledons.
as §6, §11, §9, §4

Test [7] relates to Turnip (TP). The test can be described thus: Pre-emergence herbicide test, turnip. The settings on record: two weeks. It counts as in vivo, Brassica sp. How it is done: as §12, §1, §6, §11, §9, §4
Test [8] deals with Cotton (CT). Briefly: Pre-emergence herbicide test, cotton. The settings on record: Gossypium hirsutum, pre-emergence, 336 h, 4 lb/acre, two weeks. Format: in vivo, Gossypium hirsutum var. DPL smooth leaf. On the procedure:
as §5, §1, §3, §7, §8, §9, §4

Consider `CNC(=O)Nc1nnc(CC(C)C)s1` [Example 21], for which the “herbicidal effectiveness and selectivity (in words)” value in test [1] is recorded as “more selective”.

On to `NC(=O)Nc1nnc(C(F)(F)F)s1` [Example 70], for which the “POST-EMERGENCE ACTIVITY, % CONTROL” value in test [2] (5 lb/acre) is reported as 20%; in test [2] (10 lb/acre), 20%; in test [4] (5 lb/acre), 20%; in test [4] (10 lb/acre), 20%; in test [5] (5 lb/acre), 50%; in test [5] (10 lb/acre) it was 50%. The “POST-EMERGENCE ACTIVITY, % CONTROL” value in test [6] (5 lb/acre) and in test [6] (10 lb/acre) was 80% throughout. Also, the “PRE-EMERGENCE ACTIVITY, % CONTROL” value in test [3] (5 lb/acre), in test [3] (10 lb/acre), in test [7] (5 lb/acre) and in test [7] (10 lb/acre) was 10% throughout.

As to `CN(C)C(=O)Nc1nnc(C(F)(F)F)s1` [Example 2, 1,1-Dimethyl-3-[5-Trifluoromethyl-2-(1,3,4-Thiadiazolyl)]Urea], the “herbicidal effectiveness and selectivity (in words)” value in test [1] is on record as “extremely effective”.

Take `CNC(=O)Nc1nncs1` [Example 35]: the “herbicidal effectiveness and selectivity (in words)” value in test [1] is reported as “more selective”.

With `CNC(=O)N(C)c1nnc(C(F)(F)F)s1` [Example 36], the “herbicidal effectiveness and selectivity (in words)” value in test [1] is on record as “extremely effective”.

Consider `CNC(=O)Nc1nnc(C(F)(F)F)s1` [Example 1, 1-Methyl-3-[5-Trifluoromethyl-2-(1,3,4-Thiadiazolyl)]Urea], for which, in test [1], the “herbicidal effectiveness and selectivity (in words)” value is “extremely effective”.

As for `C=CCNC(=O)Nc1nnc(C(F)(F)F)s1` [Example 12], the “herbicidal effectiveness and selectivity (in words)” value in test [1] was “control post-emergence growth, while have little effect in regard to pre-emergence”.

Consider `O=C(Nc1ccc(Cl)cc1)Nc1nnc(C(F)(F)F)s1` [Example 15], for which the “herbicidal effectiveness and selectivity (in words)” value in test [1] was “more selective”.

As for `CNC(=O)Nc1nnc(-c2cccc(C(F)(F)F)c2)s1` [Example 73], the pest or weed control at 4483.4 g/ha in test [8] was determined as 10%; in test [4] (Digitaria sanguinalis, post-emergence, 336 h, 4 lb/acre), 80%.

For `CNC(=O)Nc1nnc(COC)s1` [Example 25], in test [1], the “herbicidal effectiveness and selectivity (in words)” value is recorded as “more selective”.

Usually pest or weed control stands for the degree to which the test organism was suppressed or injured, in per cent.

The values above are taken from patent publication US4599424A, “5-substituted thiadiazole ureas and their use as herbicides” (priority 1979, dated 1986).
